According to US8486979B2, “1,2,4 oxadiazole compounds and methods of use thereof” (AbbVie Inc., priority 2006, dated 2013):
Where a name gives a salt, the structure may show the parent alone.

The compounds below were run against T1, human α4β2 nicotinic acetylcholine receptor (Homo sapiens, UniProt P17787+P43681) (assay: Calcium flux (FLIPR) assay, HEK-293 cells expressing human α4β2 nAChR). Settings: presence and absence of α4β2 PAM Compound 1, FIG. 5.
T1 construct: expressed in transfected cells
T1 sequence (P43681 29-627 limits assumed): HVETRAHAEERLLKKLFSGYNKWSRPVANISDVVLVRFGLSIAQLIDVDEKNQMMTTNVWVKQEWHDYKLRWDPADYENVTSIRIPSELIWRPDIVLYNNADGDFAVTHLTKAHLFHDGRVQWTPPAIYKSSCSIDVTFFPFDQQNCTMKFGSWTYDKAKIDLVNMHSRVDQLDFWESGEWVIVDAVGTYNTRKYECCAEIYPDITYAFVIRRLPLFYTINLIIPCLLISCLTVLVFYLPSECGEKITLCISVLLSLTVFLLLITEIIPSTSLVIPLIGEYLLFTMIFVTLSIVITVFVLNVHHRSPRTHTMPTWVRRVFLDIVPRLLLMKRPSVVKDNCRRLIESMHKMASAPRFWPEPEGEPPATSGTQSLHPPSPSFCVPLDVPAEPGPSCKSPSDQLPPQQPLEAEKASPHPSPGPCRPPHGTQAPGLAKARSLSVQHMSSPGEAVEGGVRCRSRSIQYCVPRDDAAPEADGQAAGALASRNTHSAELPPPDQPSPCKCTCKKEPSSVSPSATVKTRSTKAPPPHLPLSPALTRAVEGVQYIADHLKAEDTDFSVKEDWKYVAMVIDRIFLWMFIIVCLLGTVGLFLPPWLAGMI
T1 sequence (P17787 26-502): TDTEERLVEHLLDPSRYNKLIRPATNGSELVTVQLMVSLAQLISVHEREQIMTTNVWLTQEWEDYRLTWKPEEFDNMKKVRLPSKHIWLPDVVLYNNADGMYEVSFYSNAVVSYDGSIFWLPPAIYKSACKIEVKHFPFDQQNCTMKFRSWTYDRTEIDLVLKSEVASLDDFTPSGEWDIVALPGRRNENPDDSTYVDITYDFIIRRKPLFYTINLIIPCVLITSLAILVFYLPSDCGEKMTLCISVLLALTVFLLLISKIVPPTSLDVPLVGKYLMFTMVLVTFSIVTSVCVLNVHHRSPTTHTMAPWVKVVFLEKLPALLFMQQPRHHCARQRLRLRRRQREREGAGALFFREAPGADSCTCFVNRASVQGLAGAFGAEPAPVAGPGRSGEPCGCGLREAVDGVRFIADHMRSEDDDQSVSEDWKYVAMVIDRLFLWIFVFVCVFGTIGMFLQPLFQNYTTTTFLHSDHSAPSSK
Type: cell-based
Procedure: Experimental Procedure: Human embryonic kidney (HEK) 293 cells stably expressing human α4β2 or α3β4 combinations are grown to confluency in 162 cm^2 tissue culture flasks in DMEM media supplemented with 10% FBS and 25 μg/ml zeocin and 200 μg/ml hygromycin B. IMR-32 neuroblastoma cells (ATCC) are grown to confluency in 162 cm^2 tissue culture flasks in minimum essential media supplemented with 10% FBS and 1 mM sodium pyruvate, 1% non-essential amino acids and 1% antibiotic-antimycotic. The cells are then dissociated using cell dissociation buffer and 100-150 μl per well of 3.5×10^5 cells/ml cell suspension (˜50,000-100,000 cells/well) was plated into 96-well black plates (poly-D-lysine precoated) with clear bottom and maintained for 24-48 hours in a tissue culture incubator at 37° C. under an atmosphere of 5% CO2: 95% air. Other clonal cell lines or primary cell cultures that express endogenous α4* nicotinic receptors may also be used in this assay. Calcium flux was measured using calcium-3 assay kit (Molecular Devices, Sunnyvale, Calif.) or fluo-4 (Invitrogen). A stock solution of the dye was prepared by dissolving each vial supplied by the vendor in Hank's balanced salt solution buffer (HBSS) or 150 mM NMDG, 20 mM CaCl2 containing 10 mM HEPES, The stock solution was diluted 1:20 using the same buffer before use. The growth media was removed from the cells. The cells were loaded with 100 μl of the dye per well and incubated at room temperature for up to one hour for HEK 293 clonal stable cell lines or 30 minutes-45 minutes at 37° C. for IMR-32 cells Fluorescence measurements were read simultaneously from all the wells by a Fluorometic Imaging Plate Reader (FLIPR) at an excitation wavelength of 480 nm and an emission wavelength of 520 nm. Baseline fluorescence was measured for the first 6 seconds at which 3× concentrations of modulator/test compounds were added to the cell plate at 50 μl and incubated for five minutes. The fluorescence intensity was captured every second for the first 1 minute followed by every 5 seconds for an additional 4 minutes. This procedure was followed by 50 μl of 4× concentration of agonist and readings were taken for a period of 3-5 minutes as described above. Data was normalized to maximal responses and plotted as a function of concentration. The concentration dependence of changes fluorescence responses was fitted by nonlinear regression analysis (GraphPad Prism, San Diego, Calif.) to obtain EC50 values.
The positive allosteric modulator effects on α4β2 nAChRs exemplified by 3-(3-pyridin-3-yl-1,2,4-oxadiazol-5-yl)benzonitrile (Compound 1) and 3,5-di(pyridin-3-yl)-1,2,4-oxadiazole (Compound 2) can be identified by measuring their potentiating effect to fluorescence changes in intracellular calcium using a fluorimetric plate reader. The potentiating effect of an α4β2 modulator on α4β2 receptor can also be illustrated by concentration responses to α4β2 agonists, for example 5-[(2R)-azetidin-2-ylmethoxy]-2-chloropyridine (Compound A) and (3R)-1-pyridin-3-ylpyrrolidin-3-amine (Compound B), in presence of a fixed concentration of PAM. […] In addition to compound A and B, other known nicotinic agonists can be left-shifted in presence of α4β2 PAM such as […]. […] This could lead to preferential effects of the agonist at the desired subtype, viz., α4β2, without effects at other nicotinic receptor subtypes and thus enhancing in vivo selectivity of the agonist.
The activity (allosteric effects—potentiation of fluorescence responses) ranges are defined as follows; “a” denotes as activity range from 200-400%, “b” denotes an activity range from 150-200%, “c” denotes an activity range from 120-150% and “d” denotes an activity range 90-120%. […]

| SMILES | potency (EC50 values) for activation of α4β2 nAChRs in the presence vs absence of PAM |
| --- | --- |
| CN[C@@H](C)C/C=C/c1cncc(OC(C)C)c1 [ispronicline, reference compound] | increase in the presence of the positive allosteric modulator |
| c1cnc2cc3c(cc2n1)[C@@H]1CNC[C@H]3C1 [varenicline, reference compound] | increase in the presence of the positive allosteric modulator |

Same assay, conditions: α4β2 positive allosteric modulation, calcium fluorescence (FLIPR)

| SMILES | Activity (allosteric effects—potentiation of fluorescence responses) |
| --- | --- |
| N#Cc1cccc(-c2noc(-c3ccc(Cl)nc3)n2)c1 [Example 76, 3-(5-(6-chloropyridin-3-yl)-1,2,4-oxadiazol-3-yl)benzonitrile] | b (“b” denotes an activity range from 150-200%) |
| NS(=O)(=O)c1cccc(-c2nc(-c3cccnc3)no2)c1 [Example 35, 3-(3-(pyridin-3-yl)-1,2,4-oxadiazol-5-yl)benzenesulfonamide] | a (“a” denotes as activity range from 200-400%) |
| O=[N+]([O-])c1cccc(-c2nc(-c3cccnc3)no2)c1 [Example 40, 5-(3-nitrophenyl)-3-(pyridin-3-yl)-1,2,4-oxadiazole] | a (“a” denotes as activity range from 200-400%) |
| Fc1ccc(-c2nc(-c3ccnnc3)no2)cc1F [Example 83, 5-(3,4-Difluorophenyl)-3-(pyridazin-4-yl)-1,2,4-oxadiazole hydrochloride] | a (“a” denotes as activity range from 200-400%) |
| O=c1[nH]c2cc(-c3noc(-c4cccnc4)n3)ccc2o1 [Example 132, 5-(5-(pyridin-3-yl)-1,2,4-oxadiazol-3-yl)benzo[d]oxazol-2(3H)-one] | a (“a” denotes as activity range from 200-400%) |
| O=c1ccc(-c2noc(-c3cccnc3)n2)c[nH]1 [Example 55, 5-(5-(pyridin-3-yl)-1,2,4-oxadiazol-3-yl)pyridin-2(1H)-one] | c (“c” denotes an activity range from 120-150%) |
| Fc1cccc(-c2nc(-c3cccnc3)no2)c1F [Example 11, 5-(2,3-difluorophenyl)-3-(pyridin-3-yl)-1,2,4-oxadiazole] | a (“a” denotes as activity range from 200-400%) |
| Oc1cncc(-c2nc(-c3cccnc3)no2)c1 [Example 9, 5-(3-(pyridin-3-yl)-1,2,4-oxadiazol-5-yl)pyridin-3-ol] | d (“d” denotes an activity range 90-120%) |
| Clc1cc(-c2noc(-c3cccnc3)n2)ccn1 [Example 42, 3-(2-chloropyridin-4-yl)-5-(pyridin-3-yl)-1,2,4-oxadiazole] | c (“c” denotes an activity range from 120-150%) |
| N#Cc1ccc(-c2nc(-c3cccnc3)no2)cc1 [Example 19, 4-(3-(pyridin-3-yl)-1,2,4-oxadiazol-5-yl)benzonitrile] | b (“b” denotes an activity range from 150-200%) |
| Cc1ccc(-c2noc(-c3cccc(C#N)c3)n2)cn1 [Example 7, 3-(3-(6-methylpyridin-3-yl)-1,2,4-oxadiazol-5-yl)benzonitrile] | b (“b” denotes an activity range from 150-200%) |
| Brc1cncc(-c2nc(-c3cccnc3)no2)c1 [Example 5, 5-(5-bromopyridin-3-yl)-3-(pyridin-3-yl)-1,2,4-oxadiazole] | c (“c” denotes an activity range from 120-150%) |
| CS(=O)(=O)c1cccc(-c2nc(-c3cccnc3)no2)c1 [Example 41, 5-(3-(methylsulfonyl)phenyl)-3-(pyridin-3-yl)-1,2,4-oxadiazole] | c (“c” denotes an activity range from 120-150%) |
| Fc1ccc(-c2nc(-c3cncnc3)no2)cc1F [Example 101, 5-(3,4-difluorophenyl)-3-(pyrimidin-5-yl)-1,2,4-oxadiazole tosylate] | a (“a” denotes as activity range from 200-400%) |
| O=c1[nH]c2cc(-c3nc(-c4cccnc4)no3)ccc2o1 [Example 125, 5-(3-(pyridin-3-yl)-1,2,4-oxadiazol-5-yl)benzo[d]oxazol-2(3H)-one] | a (“a” denotes as activity range from 200-400%) |
| CC(=O)c1cccc(-c2nc(-c3cccnc3)no2)c1 [Example 68, 1-(3-(3-(pyridin-3-yl)-1,2,4-oxadiazol-5-yl)phenyl)ethanone] | b (“b” denotes an activity range from 150-200%) |
| Fc1ccc(-c2nc(-c3cccnc3)no2)cc1F [Example 10, 5-(3,4-difluorophenyl)-3-(pyridin-3-yl)-1,2,4-oxadiazole] | a (“a” denotes as activity range from 200-400%) |
| N#Cc1cccc(-c2noc(-c3ccc(F)nc3)n2)c1 [Example 4, 3-(5-(6-fluoropyridin-3-yl)-1,2,4-oxadiazol-3-yl)benzonitrile] | b (“b” denotes an activity range from 150-200%) |
| c1cncc(-c2noc(-c3cccnc3)n2)c1 [Example 2, 3,5-di(pyridin-3-yl)-1,2,4-oxadiazole] | a (“a” denotes as activity range from 200-400%) |
| N#Cc1cccc(-c2noc(-c3cccnc3)n2)c1 [Example 3, 3-(5-(pyridin-3-yl)-1,2,4-oxadiazol-3-yl)benzonitrile] | a (“a” denotes as activity range from 200-400%) |
